Source: PMC5733478, “A Non-imaging High Throughput Approach to Chemical Library Screening at the Unmodified Adenosine-A3 Receptor in Living Cells” (Frontiers in Pharmacology, 2017)
Structures can show the parent of a compound that is named as a salt. Where two headings read alike, the source gives them in different places.

Target: T1, human A3AR (Homo sapiens, UniProt P0DMS8)
T1 construct: expressed in transfected cells
T1 sequence (P0DMS8 1-318): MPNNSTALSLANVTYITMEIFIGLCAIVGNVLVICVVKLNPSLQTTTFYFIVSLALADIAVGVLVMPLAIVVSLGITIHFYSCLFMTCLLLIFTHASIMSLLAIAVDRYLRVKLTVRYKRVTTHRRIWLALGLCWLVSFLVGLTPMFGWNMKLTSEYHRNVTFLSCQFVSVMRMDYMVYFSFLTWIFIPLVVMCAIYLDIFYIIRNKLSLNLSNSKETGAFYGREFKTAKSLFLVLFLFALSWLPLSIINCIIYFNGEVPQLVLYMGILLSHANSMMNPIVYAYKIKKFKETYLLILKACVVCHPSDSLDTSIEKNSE
Assay: LOPAC library primary screen: single concentration (10 μM) inhibition of 25 nM CA200645 binding, PHERAstar FS

[1] = % of control wells (1% DMSO and 25 nM CA200645), compounds at 10 µM, whole live cells expressing the A3AR, mean ± SD, three experiments in duplicate

Row | Compound | % 25 nM CA200645 binding [%] | further results
1 | Clc1ccc2c(c1)N=C(N1CCNCC1)c1ccccc1N2 [N-Desmethylclozapine] | – | % 25 nM CA200645 binding [1]: 98.4 ± 14.7%
2 | OCCN1CCN(CCCN2c3ccccc3Sc3ccc(C(F)(F)F)cc32)CC1 [Fluphenazine dihydrochloride] | 98.1 ± 12.0 | –
3 | CC(C)(NS(=O)(=O)c1ccc(Oc2ccc(F)cc2)cc1)C(=O)NO [CP-471474] | 98.7 ± 17.5 | –
4 | COc1ccc(CCn2nnnc2C2(c3ccc(C)cc3)CC2)cc1 [Mephetyl tetrazole] | 66.4 ± 18.5 | –
5 | CCOC(=O)[C@H](CCc1ccccc1)N[C@@H](C)C(=O)N1[C@H](C(=O)O)C[C@H]2CCCC[C@@H]21 [Trandolapril] | 99.7 ± 12.5 | –
6 | Nc1ccc2c3c(cccc13)C(=O)NC2=O [4-Amino-1,8-naphthalimide] | 95.4 ± 12.1 | –
7 | CCCCc1ccc(C(=O)O)nc1 [Fusaric acid] | 66.5 ± 29.0 | –
8 | NCCCCN [Putrescine dihydrochloride] | 106.2 ± 11.7 | –
9 | O=C(Nc1nc2ccccc2n1CCN1CCOCC1)c1cccc([N+](=O)[O-])c1 [IRAK-1/4 Inhibitor I] | 61.3 ± 9.4 | –
10 | O=C1OC(=O)[C@H]2[C@@H]1[C@@H]1CC[C@H]2O1 [Norcantharidin] | 108.5 ± 19.2 | –
11 | CCn1cc(C(=O)[O-])c(=O)c2ccc(C)nc21.[Na+] [Nalidixic acid sodium] | 106.1 ± 13.7 | –
12 | Cn1c(=O)c2[nH]c(-c3ccccc3)nc2n(C)c1=O [1,3-Dimethyl-8-phenylxanthine] | 91.8 ± 4.8 | –
13 | COC(=O)[C@@H](N)CCCN=C(N)N[N+](=O)[O-].Cl | 109.0 ± 16.7 | –
14 | O=c1onc2n1-c1cc(Br)ccc1OC2 [NS 2028] | 100.2 ± 8.6 | –
15 | CCc1ccccc1OC[C@@H](O)CN[C@H]1CCCc2ccccc21.O=C(O)C(=O)O [SR 59230A oxalate] | 94.8 ± 26.7 | –
16 | FC(F)(F)c1ccccc1-n1ccnc1 [1-[2-(Trifluoromethyl)phenyl]imidazole] | 101.2 ± 9.4 | –
17 | NC(=O)CI [Iodoacetamide] | 101.9 ± 8.2 | –
18 | COCc1nc2c([nH]1)c(=O)n(C)c(=O)n2CC(C)C | 99.2 ± 10.1 | –
19 | N[C@@H](CC(=O)O)C(=O)O [L-Aspartic acid] | 99.3 ± 3.7 | –
20 | O=C1NC(=O)/C(=C/c2ccc(-c3ccc(F)cc3O)o2)S1 [AS-252424] | 45.8 ± 20.9 | –
21 | Nc1nc2c(ncn2COCCO)c(=O)[nH]1 [Acyclovir] | 99.9 ±13.7 | –
22 | Cc1oncc1C(=O)Nc1ccc(C(F)(F)F)cc1 [Leflunomide] | 100.1 ± 5.3 | –
23 | Br.CN1CCc2cc(O)cc3c2[C@H]1Cc1ccc(O)c(O)c1-3 | 83.0 ± 14.1 | –

Row | Compound | % 25 nM CA200645 binding [%] | further results
24 | CN(C)C(=O)[C@H](O)[C@H](Cc1ccccc1)NC(=O)c1cc2cc(Cl)ccc2[nH]1 [CP-91149] | 87.6 ± 14.6 | –
25 | OCc1cc(C(O)CNCCCCCCOCCCCc2ccccc2)ccc1O (stereo not drawn) [Salmeterol xinafoate] | 92.6 ± 8.3 | –
26 | OCCN1CCN(CC/C=C2/c3ccccc3Sc3ccc(C(F)(F)F)cc32)CC1 [cis-(Z)-Flupenthixol dihydrochloride] | 96.5 ± 4.1 | –
27 | CC[C@]1(O)C[C@H]2CN(CCc3c([nH]c4ccccc34)[C@@](C(=O)OC)(c3cc4c(cc3OC)N(C=O)[C@H]3[C@@](O)(C(=O)OC)[C@H](OC(C)=O)[C@]5(CC)C=CCN6CC[C@]43[C@@H]65)C2)C1 [Vincristine sulfate] | 106.1 ± 21.2 | –
28 | Brc1c(Br)c(Br)c2[nH]cnc2c1Br [TBBz] | 74.5 ± 15.0 | –
29 | NC(=O)CC[C@H](N)C(=O)O [L-Glutamine] | – | % 25 nM CA200645 binding [1]: 99.9 ± 14.1%
30 | CS(=O)(=O)c1cccc(CNc2nc(Nc3ccc4c(c3)CCC(=O)N4)ncc2C(F)(F)F)c1 [PF-573228] | 54.7 ± 30.2 | –
31 | CC(=O)Nc1nnc(S(N)(=O)=O)s1 [Acetazolamide] | 92.4 ± 4.0 | –
32 | Cn1cnc2c(NCc3ccccc3)nc(NCCO)nc21 [Olomoucine] | 97.0 ± 10.1 | –
33 | CN(C(=O)Cc1ccc(Cl)c(Cl)c1)C(CN1CCCC1)c1cccc(OCC(=O)O)c1.Cl (stereo not drawn) [ICI 204,448 hydrochloride] | 104.6 ± 7.5 | –
34 | Cl.Oc1cc2c(cc1O)C(c1ccccc1)CNCC2 (racemic) [(±)-SKF-38393 hydrochloride] | 99.4 ± 9.0 | –
35 | CCOC(=O)C1=C(C)NC(C)=C(C(=O)OC)C1c1cccc(Cl)c1Cl (stereo not drawn) [Felodipine] | 79.1 ± 13.7 | –
36 | Cl.O=C(Cc1ccc(Cl)c(Cl)c1)N1CCCCC1CN1CCCC1 (stereo not drawn) [BRL 52537 hydrochloride] | 112.4 ± 4.2 | –
37 | O=Nc1ccc2oc(=O)ccc2c1 [6-Nitroso-1,2-benzopyrone] | 107.9 ± 12.7 | –
38 | O=C(c1ccc(Cl)cc1)N1CCN(c2ccc([N+](=O)[O-])c3ncccc23)CC1 [CPNQ] | 83.4 ± 4.6 | –
39 | CS(=O)(=O)Nc1ccc([N+](=O)[O-])cc1Oc1ccccc1 [Nimesulide] | 114.0 ± 22.1 | –
40 | O=C(NCCN1CCOCC1)c1ccc(Cl)cc1 [Moclobemide] | 97.8 ± 6.0 | –
41 | CCCCCCCC/C=C\CCCCCCCC(=O)NCCO [N-Oleoylethanolamine] | 98.2 ± 10.8 | –
42 | O=C1NC(=O)c2cc(Nc3ccccc3)c(Nc3ccccc3)cc21 [DAPH] | 31.8 ± 9.9 | –
43 | Oc1ccc(C2CNCCc3c2cc(O)c(O)c3Cl)cc1 (stereo not drawn) [Fenoldopam bromide] | 90.6 ± 5.5 | –
44 | N=C(N)N1CCc2ccccc2C1 [Debrisoquin sulfate] | 81.0 ± 16.3 | –
45 | O=C1NC(=O)/C(=C/c2ccc3c(c2)OC(F)(F)O3)S1 [AS 604850] | 58.3 ± 11.4 | –
46 | NCC(CC(=O)O)c1ccc(Cl)cc1 (racemic) [(±)-Baclofen] | 99.6 ± 6.9 | –

Row | Compound | % 25 nM CA200645 binding [%] | further results
47 | O=c1[nH]c2cc(C(F)(F)F)ccc2n1-c1cc(C(F)(F)F)ccc1O [NS-1619] | 94.9 ± 11.8 | –
48 | COc1ccccc1N1CCN(CCCNc2c(C)c(=O)n(C)c(=O)n2C)CC1 [Urapidil, 5-Methyl-] | 83.5 ± 22.8 | –
49 | CN(C)CC[C@@H](c1ccc(Cl)cc1)c1ccccn1 [(+)-Chlorpheniramine maleate] | 96.8 ± 6.2 | –
50 | Nc1nccc2c1ncn2[C@@H]1O[C@H](CO)[C@@H](O)[C@H]1O [3-deazaadenosine] | 93.8 ± 11.9 | –
51 | Nc1nnc(-c2cccc(Cl)c2Cl)c(N)n1 [Lamotrigine] | 93.6 ± 9.2 | –
52 | Cc1scc2c1N(C(=O)CN1CCN(C)CC1)c1ccccc1NC2=O [Telenzepine dihydrochloride] | 107.0 ± 15.2 | –
53 | N=C(N)NCCC[C@H](N)C(=O)O [L-Arginine] | 97.1 ± 5.5 | –
54 | N[C@@H](Cn1ccc(=O)c(O)c1)C(=O)O [L-Mimosine from Koa hoale seeds] | 106.5 ± 13.7 | –
55 | Cc1ccc(C(=O)Nc2ccc(S(=O)(=O)[O-])c3cc(S(=O)(=O)[O-])cc(S(=O)(=O)[O-])c23)cc1NC(=O)c1cccc(NC(=O)Nc2cccc(C(=O)Nc3cc(C(=O)Nc4ccc(S(=O)(=O)[O-])c5cc(S(=O)(=O)[O-])cc(S(=O)(=O)[O-])c45)ccc3C)c2)c1.[Na+].[Na+].[Na+].[Na+].[Na+].[Na+] [Suramin sodium salt] | 93.4 ± 9.0 | –
56 | CC(=O)[C@H]1CC[C@H]2[C@@H]3CC[C@H]4C[C@H](O)CC[C@]4(C)[C@H]3CC[C@]12C [5alpha-Pregnan-3alpha-ol-20-one] | 85.2 ± 19.4 | –
57 | CC(=O)Oc1ccccc1C(=O)O [Acetylsalicylic acid] | 102.5 ± 9.1 | –
58 | CC(C)(C)[C@]1(O)CCN2C[C@H]3c4ccccc4CCc4cccc(c43)[C@@H]2C1 [(+)-Butaclamol hydrochloride] | 98.6 ± 1.9 | –
59 | Cn1c(=O)c2nc(C3CCCC3)[nH]c2n(C)c1=O [CPT, reference compound] | – | hit in LOPAC primary screen (inhibited the binding of CA200645 by >40%) (10 μM compound, 25 nM CA200645, A3AR CHO cells): not identified as hits
60 | CC(=O)S[C@@H]1CC2=CC(=O)CC[C@]2(C)[C@H]2CC[C@@]3(C)[C@@H](CC[C@@]34CCC(=O)O4)[C@H]12 [Spironolactone] | 94.5 ± 9.9 | –
61 | Cc1nc2sccn2c(=O)c1CCN1CCC(=C(c2ccc(F)cc2)c2ccc(F)cc2)CC1 [Ritanserin] | – | % 25 nM CA200645 binding [1]: 79.4 ± 12.5%
62 | O=c1[nH]c2ccccc2n1C1CCN(CCCC(c2ccc(F)cc2)c2ccc(F)cc2)CC1 [Pimozide] | 78.2 ± 10.9 | –
63 | CC(C)(Sc1ccc(CCN(CCCCC2CCCCC2)C(=O)NC2CCCCC2)cc1)C(=O)O [GW7647] | 55.8 ± 12.2 | –
64 | CCOC(=O)Nc1ccc(NCc2ccc(F)cc2)nc1N [Flupirtine maleate] | 75.3 ± 9.1 | –
65 | NCCc1c[nH]c2ccc(C(N)=O)cc12.O=C(O)/C=C\C(=O)O [5-Carboxamidotryptamine maleate] | 85.7 ± 14.5 | –
66 | CC[C@@H](CO)NC(=O)[C@@H]1C=C2c3cccc4[nH]cc(c34)C[C@H]2N(C)C1 [Methylergonovine maleate] | 91.6 ± 8.0 | –
67 | CNCCc1cnc(CCC(c2ccccc2)c2ccccc2)[nH]1.O=C(O)C(=O)O.O=C(O)C(=O)O [N-Methylhistaprodifen dioxalate salt] | 99.4 ± 7.3 | –
68 | CCN(CC)CCNC(=O)c1cc(Cl)c(N)cc1OC.Cl [Metoclopramide hydrochloride] | 106.5 ± 2.9 | –
69 | CCN1CCC[C@H]1CNC(=O)c1cc(S(N)(=O)=O)ccc1OC [(-)-Sulpiride] | 103.0 ± 8.9 | –
